Measured values as given in US6358967B1, “Ergoline amine derivatives with blood pressure lowering effect” (priority 1998, dated 2002).

Tested on: normotensive Wistar rats
Experiment: Invasive blood pressure measurement in anesthetized rats, i.v. administration
Format: in vivo, rat
Description: Male Wistar rats with a body weight (BW) of 300-450 g were used as experimental animals. The rats are anesthetized immediately before the experiment with 50 mg/kg pentobarbital Na intraperitoneally (i.p.) or 70 mg/kg inactin i.v. PE tubes are tied into the carotid artery and femoral vein.
To maintain the blood pressure and to prevent formation of thrombi in the PE tubes of the blood vessels, each hour 2.5 ml of heparinized 0.9% strength NaCl solution are infused through the femoral vein and 1.2 ml through the carotid artery.
The arterial blood pressure is measured invasively using a PONEMAH hemodynamic analyzer (HSE, March, Germany). Via the tube in the carotid artery, the arterial blood pressure is mechanoelectrically converted in a Statham transducer (ISOTEC), amplified in a Plugsys (DBA module, type 660), digitized in an A/D converter and input into the PC memory over defined time intervals. The values in the memory are then treated with an adapted algorithm in order to establish the blood pressure parameters to be calculated for heart rate, systolic, diastolic and mean blood pressure.
The ergoline derivatives are administered i.v. through the femoral vein as 5 percent EtOH/NaCl (0.9%) solution, 1 ml/kg in a dosage of 0.5 mg/kg test substance.

[1] = assessment class of duration, 0.5 mg/kg i.v., Table 1.1
[2] = assessment class of pressure fall, 0.5 mg/kg i.v., Table 1.1
[3] = change shown as arrow, Wistar rats, 0.5 mg/kg i.v., Table 1.1
[4] = duration of blood pressure effect, Wistar rats, 0.5 mg/kg i.v., Table 1.1
[5] = effect (fall) on arterial blood pressure, anesthetized Wistar rats, 0.5 mg/kg i.v., Table 1.1

Row | Compound | Effect pressure/duration: duration [1] | Effect pressure/duration: pressure [2] | Heart rate [3] | Duration [4] | Diastol. pressure [5] [%] | Mean pressure [5] [%] | Systol. pressure [5] [%] | Diastol. pressure (rat, in vivo, iv, 0.5 mg/kg) [%] | Duration (rat, in vivo, iv, 0.5 mg/kg) | Effect pressure/duration: duration (rat, in vivo, iv, 0.5 mg/kg) | Effect pressure/duration: pressure (rat, in vivo, iv, 0.5 mg/kg) | Heart rate (rat, in vivo, iv, 0.5 mg/kg) | Mean pressure (rat, in vivo, iv, 0.5 mg/kg) [%] | Systol. pressure (rat, in vivo, iv, 0.5 mg/kg) [%]
1 | CN1CC(CNC(=O)c2ccc(C(=O)NCC3CCCC(CN)C3)cc2)CC2c3cccc4[nH]cc(c34)CC21.O=C(O)C(F)(F)F.O=C(O)C(F)(F)F (mixture of isomers) [Substance 9703127] | ↓↓/↓↓ (up to 30 min) | ↓↓/↓↓ (to 30%) | → | >25 min | 29.0 | 27.2 | 24.8 | – | – | – | – | – | – | –
2 | CN1CC(CNC(=O)C2CCC(C(=O)NCCCN3CCN(CCCN)CC3)CC2)CC2c3cccc4[nH]cc(c34)CC21.O=C(O)C(F)(F)F.O=C(O)C(F)(F)F.O=C(O)C(F)(F)F.O=C(O)C(F)(F)F (mixture of isomers) [Substance 9703133] | – | – | – | – | – | – | – | 50.0 | ca 60 min | ↓↓↓/↓↓↓ (key: (↓): < 5 min; ↓: up to 10 min; ↓↓: up to 30 min; ↓↓↓: >30 min) | ↓↓↓/↓↓↓ (key: →: no effect to 5%; (↓): to 10%; ↓: to 20%; ↓↓: to 30%; ↓↓↓: >30%) | ↑ | 45.4 | 48.4
3 | CN1C[C@H](CN)C[C@@H]2c3cccc4[nH]cc(c34)C[C@H]21 [8β-Aminomethyl-6-methylergoline, reference compound] | ↓↓ (up to 30 min) | ↓ (to 20%) | → | 30 min | 14.3 | 15.3 | 16.4 | – | – | – | – | – | – | –
4 | CC(C)[C@H]1C(=O)N2CCC[C@H]2[C@]2(O)O[C@](NC(=O)[C@@H]3C[C@@H]4c5cccc6[nH]cc(c56)C[C@H]4N(C)C3)(C(C)C)C(=O)N12 [Dihydroergocornine, reference compound] | (↓) (< 5 min) | ’ | → | 3 min | 4.3 | 3.3 | 5.0 | – | – | – | – | – | – | –
5 | CN1C[C@H](C(N)=O)CC2c3cccc4[nH]cc(c34)C[C@H]21 (some centres unmarked) [Dihydrolysergamide, reference compound] | (↓)/(↓) (< 5 min) | (↓)/(↓) (to 10%) | → | 5 min | 7.1 | 8.0 | 8.0 | – | – | – | – | – | – | –
6 | Nc1cc(N2CCCCC2)nc(N)[n+]1[O-] [Minoxidil, reference compound] | ↓/↓ (up to 10 min) | ↓/↓ (to 20%) | → | ca 10 min | 8.1 | 7.1 | 6.6 | – | – | – | – | – | – | –
7 | CN1CC(CNC(=O)c2ccc(C(=O)NC3CCC(N)CC3)cc2)CC2c3cccc4[nH]cc(c34)CC21.O=C(O)C(F)(F)F.O=C(O)C(F)(F)F (centres unmarked) [Substance 9703112] | ↓↓/↓↓ (up to 30 min) | ↓↓/↓↓ (to 30%) | → | 18 min | 31.7 | 29.2 | 25.2 | – | – | – | – | – | – | –
8 | CN1CC(CNC(=O)CCCCC(=O)NC2CCC(N)CC2)CC2c3cccc4[nH]cc(c34)CC21.O=C(O)C(F)(F)F.O=C(O)C(F)(F)F (centres unmarked) [Substance 9703114] | – | – | – | – | – | – | – | 20.7 | 40 min | ↓↓/↓↓↓ (key: (↓): < 5 min; ↓: up to 10 min; ↓↓: up to 30 min; ↓↓↓: >30 min) | ↓↓/↓↓↓ (key: →: no effect to 5%; (↓): to 10%; ↓: to 20%; ↓↓: to 30%; ↓↓↓: >30%) | → | 20.3 | 18.8
